Assay results published in patent publication US8008299B2, “Urotensin II receptor antagonists” (Janssen Pharmaceutica, N.V., priority 2007, dated 2011).

Tests used:
[1] = molecular target: T1, rat GPR14 (U-II receptor) (Rattus norvegicus, UniProt P49684); test: Rat UII Calcium Mobilization FLIPR Assay; type: cell-based; details: CHO cells transfected with rat GPR14; antagonist activity after 5 min incubation vs agonist (Ac)-CFWK(2-NaI)C-NH2 at 1 nM
T1 construct: expressed in transfected cells
T1 sequence (P49684 1-386): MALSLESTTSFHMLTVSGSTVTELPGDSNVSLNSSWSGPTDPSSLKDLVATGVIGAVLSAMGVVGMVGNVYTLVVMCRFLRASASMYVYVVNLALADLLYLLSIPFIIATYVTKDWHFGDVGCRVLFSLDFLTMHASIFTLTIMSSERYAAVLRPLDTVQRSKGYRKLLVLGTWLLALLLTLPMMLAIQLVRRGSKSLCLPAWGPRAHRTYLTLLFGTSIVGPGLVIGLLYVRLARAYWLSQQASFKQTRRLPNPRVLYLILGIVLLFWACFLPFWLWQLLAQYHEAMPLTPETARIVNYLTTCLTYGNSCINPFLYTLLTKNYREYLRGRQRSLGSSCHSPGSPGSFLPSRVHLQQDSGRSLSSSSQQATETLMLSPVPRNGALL
Source text: To derive these cells, the complete coding sequence of rat U-II (Genbank Accession No. U32673) was amplified by nested PCR from rat heart marathon-Ready cDNA. […] The PCR products were cloned into pcDNA3 (Invitrogen) digested with EcoR I and Xba I. Clones containing rat U-II receptor were verified by complete sequencing of the U-II receptor insert to ensure a lack of PCR-introduced errors. The constructed vector was transfected into CHO cells by using lipofectamine (GIBCO BRL). CHO cells with high expression of rat U-II receptor were selected and established as stable cell lines by using G418. CHO cells were seeded at 25,000 cells per well into 96-well, black-wall, clear-bottom microtiter plates 24 h before assay. Cells in culture media (DMEM/F12 containing 15 mM HEPES, L-glutamine, pyridoxine hydrochloride; 10% fetal bovine serum; 1 mg/mL G418 sulfate; antibiotic-antimycotic; pH 7.4) were loaded with proprietary dye, from the FLIPR Calcium Assay Kit (Molecular Devices), prepared in assay buffer (Hanks Balanced Salts Solution, 20 mM HEPES, 0.1% BSA, 2.5 mM probenecid, pH 7.4), and incubated for 1 h at 37° C. Calcium mobilization determinations were performed at room temperature (23° C.).

[2] = molecular target: T2, UT receptors in HSMM (Human Skeletal Muscle Myoblasts) (Homo sapiens, UniProt Q9UKP6); test: Human Radioligand Binding Assay ((^125I)-U-II binding to intact HSMM)
T2 sequence (Q9UKP6 1-389): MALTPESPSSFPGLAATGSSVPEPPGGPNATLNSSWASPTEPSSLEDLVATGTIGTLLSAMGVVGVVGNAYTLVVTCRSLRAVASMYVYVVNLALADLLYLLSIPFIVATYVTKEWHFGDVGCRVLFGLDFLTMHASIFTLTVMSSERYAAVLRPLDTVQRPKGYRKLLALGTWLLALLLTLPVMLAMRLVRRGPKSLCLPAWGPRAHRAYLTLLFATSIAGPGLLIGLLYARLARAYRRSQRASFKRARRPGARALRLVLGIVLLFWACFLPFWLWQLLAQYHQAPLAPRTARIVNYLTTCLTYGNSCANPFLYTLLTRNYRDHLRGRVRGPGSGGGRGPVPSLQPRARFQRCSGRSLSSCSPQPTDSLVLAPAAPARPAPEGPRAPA

[3] = molecular target: T3, Human UII (U-II receptor) in 6D9 human rhabdomyosarcoma cells (Homo sapiens, UniProt Q9UKP6); test: Human UII Calcium Mobilization Assay; type: cell-based; details: 6D9 human rhabdomyosarcoma cells, FLIPR TETRA, average; read-out: Human UII Ca+ Mobilization Average IC50
T3 construct: 6D9: isolated by dilution subcloning of RMS13 cells, ATCC® Number: CRL-2061; host or cells: 6D9 human rhabdomyosarcoma cells (subclone of RMS13)
T3 sequence (Q9UKP6 1-389): T2 sequence (Q9UKP6 1-389)
Experimental: 25 μL of dye solution was added to the wells such that the final liquid volume before agonist/antagonist treatment was 50 μL for all assays. The cell plates were incubated at 37° C. for 45 minutes and the fluorescence intensity was measured on a Fluorometric Imaging Plate Reader (FLIPR^TETRA, Molecular Devices, Sunnyvale, Calif.).
Antagonist and agonist U-II were added at room temperature on the FLIPR^TETRA, and the fluorescence intensity before and after addition was measured over a period of 4 minutes. The dye incubation time and temperature as well as instrument setting was adjusted so the fluorescence intensity could be compared between plates on the same day. EC50 and IC50 were analyzed using GraphPad Prism 4 software (GraphPad Software Inc., San Diego, Calif.).
For assays, U-II agonist, U-II antagonist and urantide were diluted with HBSS/HEPES containing 0.01% FBS.
Test compounds were dissolved in DMSO at 10 mM concentration. The serial dilutions were carried out in HBSS/HEPES. The highest final DMSO concentration was at 0.1%.

SMILES | IC50 [1] [nM] | Ki [2] [nM] | IC50 [3] [nM]
CCN1CCN(c2cccc3c2CN([C@H](CCCNc2nc(OC)cc(OC)n2)c2ccc(OC)c(OC)c2)C3=O)CC1 [Cpd 10, 2-[(1R)-1-(3,4-dimethoxy-phenyl)-4-(4,6-dimethoxy-pyrimidin-2-ylamino)-butyl]-4-(4-ethyl-piperazin-1-yl)-2,3-dihydro-isoindol-1-one] | 4 | 81 | 617
CCN1CCN(c2cccc3c2CN([C@H](CCCNc2nccc(Cl)n2)c2ccc(OC)c(OC)c2)C3=O)CC1 [Cpd 11, 2-[(1R)-4-(4-chloro-pyrimidin-2-ylamino)-1-(3,4-dimethoxy-phenyl)-butyl]-4-(4-ethyl-piperazin-1-yl)-2,3-dihydro-isoindol-1-one] | 1 | 62 | 496
CCN1CCN(c2cccc3c2CN([C@H](CCCNc2nc(C)cc(C)n2)c2ccc(OC)c(OC)c2)C3=O)CC1 [Cpd 12, 2-[(1R)-1-(3,4-dimethoxy-phenyl)-4-(4,6-dimethyl-pyrimidin-2-ylamino)-butyl]-4-(4-ethyl-piperazin-1-yl)-2,3-dihydro-isoindol-1-one] | 12 | 54 | 844
CCN1CCN(c2cccc3c2CN(C(CC2CCN(Cc4ccccc4)CC2)c2ccc(OC)c(OC)c2)C3=O)CC1 (stereo not drawn) [Cpd 13, 2-[2-(1-benzyl-piperidin-4-yl)-1-(3,4-dimethoxy-phenyl)-ethyl]-4-(4-ethyl-piperazin-1-yl)-2,3-dihydro-isoindol-1-one] | 167 | > 300 | 1980
CCN1CCN(c2cccc3c2CN([C@H](CCCn2cnnn2)c2ccc(OC)c(OC)c2)C3=O)CC1 [Cpd 14, 2-[(1R)-1-(3,4-dimethoxy-phenyl)-4-tetrazol-1-yl-butyl]-4-(4-ethyl-piperazin-1-yl)-2,3-dihydro-isoindol-1-one] | 31 | 129 | 1390
CCN1CCN(c2cccc3c2CN([C@H](CCCn2ncnn2)c2ccc(OC)c(OC)c2)C3=O)CC1 [Cpd 15, 2-[(1R)-1-(3,4-dimethoxy-phenyl)-4-tetrazol-2-yl-butyl]-4-(4-ethyl-piperazin-1-yl)-2,3-dihydro-isoindol-1-one] | 57 | 172 | 1590
CCN1CCN(c2cccc3c2CN(C(c2cccc(NS(=O)(=O)c4cccs4)c2)c2ccc(OC)c(OC)c2)C3=O)CC1 (stereo not drawn) [Cpd 16, thiophene-2-sulfonic acid (3-{(3,4-dimethoxy-phenyl)-[4-(4-ethyl-piperazin-1-yl)-1-oxo-1,3-dihydro-isoindol-2-yl]-methyl}-phenyl)-amide] | 31 | 66 | 1270
CCN1CCN(c2cccc3c2CN(C(CC2CCN(S(=O)(=O)O)CC2)c2ccc(OC)c(OC)c2)C3=O)CC1 (stereo not drawn) [Cpd 17, 4-{2-(3,4-dimethoxy-phenyl)-2-[4-(4-ethyl-piperazin-1-yl)-1-oxo-1,3-dihydro-isoindol-2-yl]-ethyl}-piperidine-1-sulfonic acid] | 337 | 74 | 662
CCN1CCN(c2cccc3c2CN(C(CC2CCN(S(=O)(=O)c4cccs4)CC2)c2ccc(OC)c(OC)c2)C3=O)CC1 (stereo not drawn) [Cpd 18, 2-{1-(3,4-dimethoxy-phenyl)-2-[1-(thiophene-2-sulfonyl)-piperidin-4-yl]-ethyl}-4-(4-ethyl-piperazin-1-yl)-2,3-dihydro-isoindol-1-one] | 9 | 19 | 659
CCN1CCN(c2cccc3c2CN(C(c2cccc(NCc4ccccc4)c2)c2ccc(OC)c(OC)c2)C3=O)CC1 (stereo not drawn) [Cpd 19, 2-[(3-benzylamino-phenyl)-(3,4-dimethoxy-phenyl)-methyl]-4-(4-ethyl-piperazin-1-yl)-2,3-dihydro-isoindol-1-one] | 138 | > 300 | 2380
CCc1ccnc(NCCC[C@H](c2ccc(OC)c(OC)c2)N2Cc3c(cccc3N3CCN(CC)CC3)C2=O)n1 [Cpd 20, 2-[(1R)-1-(3,4-dimethoxy-phenyl)-4-(4-ethyl-pyrimidin-2-ylamino)-butyl]-4-(4-ethyl-piperazin-1-yl)-2,3-dihydro-isoindol-1-one] | 34 | 48 | 491

Other lines, results leading:

IC50 [1] [nM] | Ki [2] [nM] | IC50 [3] [nM] | SMILES
4 | 8 | 620 | CCN1CCN(c2cccc3c2CN([C@H](CCCNc2nccc(OC)n2)c2ccc(OC)c(OC)c2)C3=O)CC1 [Cpd 21, 2-[(1R)-1-(3,4-dimethoxy-phenyl)-4-(4-methoxy-pyrimidin-2-ylamino)-butyl]-4-(4-ethyl-piperazin-1-yl)-2,3-dihydro-isoindol-1-one]
3 | 13 | 187 | CCN1CCN(c2cccc3c2CN([C@H](CCCNc2nccc(C(F)(F)F)n2)c2ccc(OC)c(OC)c2)C3=O)CC1 [Cpd 22, 2-[(1R)-1-(3,4-dimethoxy-phenyl)-4-(4-trifluoromethyl-pyrimidin-2-ylamino)-butyl]-4-(4-ethyl-piperazin-1-yl)-2,3-dihydro-isoindol-1-one]
19 | 13 | 316 | CCN1CCN(c2cccc3c2CN([C@H](CCCNc2nccc(C)n2)c2ccc(OC)c(OC)c2)C3=O)CC1 [Cpd 23, 2-[(1R)-1-(3,4-dimethoxy-phenyl)-4-(4-methyl-pyrimidin-2-ylamino)-butyl]-4-(4-ethyl-piperazin-1-yl)-2,3-dihydro-isoindol-1-one]
145 | 301 | 2110 | CCN1CCN(c2cccc3c2CN([C@H](CCCn2cncn2)c2ccc(OC)c(OC)c2)C3=O)CC1 [Cpd 25, 2-[(1R)-1-(3,4-dimethoxy-phenyl)-4-[1,2,4]triazol-1-yl-butyl]-4-(4-ethyl-piperazin-1-yl)-2,3-dihydro-isoindol-1-one]
3 | 19 | 106 | CCN1CCN(c2cccc3c2CN([C@H](CCCSc2nc(C)cc(C)n2)c2ccc(OC)c(OC)c2)C3=O)CC1 [Cpd 27, 2-[(1R)-1-(3,4-dimethoxy-phenyl)-4-(4,6-dimethyl-pyrimidin-2-ylsulfanyl)-butyl]-4-(4-ethyl-piperazin-1-yl)-2,3-dihydro-isoindol-1-one]
25 | 154 | 1210 | COc1ccc([C@@H](CCCOc2ccccc2)N2Cc3c(cccc3N3CCN(C4CC4)CC3)C2=O)cc1OC [Cpd 28, 4-(4-cyclopropyl-piperazin-1-yl)-2-[(1R)-1-(3,4-dimethoxy-phenyl)-4-phenoxy-butyl]-2,3-dihydro-isoindol-1-one]
14 | 56 | 380 | CCN1CCN(c2cccc3c2CN([C@H](CCCn2cnc4ccccc42)c2ccc(OC)c(OC)c2)C3=O)CC1 [Cpd 29, 2-[(1R)-4-benzoimidazol-1-yl-1-(3,4-dimethoxy-phenyl)-butyl]-4-(4-ethyl-piperazin-1-yl)-2,3-dihydro-isoindol-1-one]
